Assay results from the NIST ThermoML archive (doi:10.1016/j.jct.2018.11.011).
± gives the expanded uncertainty stated by the source.

Key:
[1] = Molar enthalpy of transition or fusion; settings: Crystal; DSC

## O=C([O][Sb]([c]1ccccc1)([c]1ccccc1)([c]1ccccc1)[c]1ccccc1)c1ccccc1 [tetraphenylantimony benzoate]
5 K, 101.33 kPa, Crystal, Small (less than 1 g) adiabatic calorimetry
  molar entropy: 0.567 ± 0.052 J/K/mol
10 K, 101.33 kPa, Crystal, Small (less than 1 g) adiabatic calorimetry
  molar entropy: 4.1 ± 0.3 J/K/mol
15 K, 101.33 kPa, Crystal, Small (less than 1 g) adiabatic calorimetry
  molar entropy: 11.1 ± 0.83 J/K/mol
20 K, 101.33 kPa, Crystal, Small (less than 1 g) adiabatic calorimetry
  molar entropy: 20.79 ± 0.57 J/K/mol
25 K, 101.33 kPa, Crystal, Small (less than 1 g) adiabatic calorimetry
  molar entropy: 31.83 ± 0.85 J/K/mol
30 K, 101.33 kPa, Crystal, Small (less than 1 g) adiabatic calorimetry
  molar entropy: 43.78 ± 1.1 J/K/mol
35 K, 101.33 kPa, Crystal, Small (less than 1 g) adiabatic calorimetry
  molar entropy: 56.29 ± 1.4 J/K/mol
40 K, 101.33 kPa, Crystal, Small (less than 1 g) adiabatic calorimetry
  molar entropy: 69.07 ± 1.7 J/K/mol
45 K, 101.33 kPa, Crystal, Small (less than 1 g) adiabatic calorimetry
  molar entropy: 81.95 ± 1.6 J/K/mol
50 K, 101.33 kPa, Crystal, Small (less than 1 g) adiabatic calorimetry
  molar entropy: 94.78 ± 1.8 J/K/mol
60 K, 101.33 kPa, Crystal, Small (less than 1 g) adiabatic calorimetry
  molar entropy: 120.2 ± 2.3 J/K/mol
70 K, 101.33 kPa, Crystal, Small (less than 1 g) adiabatic calorimetry
  molar entropy: 145.3 ± 2.7 J/K/mol
80 K, 101.33 kPa, Crystal, Small (less than 1 g) adiabatic calorimetry
  molar entropy: 169.9 ± 3.2 J/K/mol
90 K, 101.33 kPa, Crystal, Small (less than 1 g) adiabatic calorimetry
  molar entropy: 194.1 ± 3.7 J/K/mol
100 K, 101.33 kPa, Crystal, Small (less than 1 g) adiabatic calorimetry
  molar entropy: 217.6 ± 4.1 J/K/mol
120 K, 101.33 kPa, Crystal, Small (less than 1 g) adiabatic calorimetry
  molar entropy: 262.3 ± 4.9 J/K/mol
140 K, 101.33 kPa, Crystal, Small (less than 1 g) adiabatic calorimetry
  molar entropy: 305.1 ± 5.7 J/K/mol
160 K, 101.33 kPa, Crystal, Small (less than 1 g) adiabatic calorimetry
  molar entropy: 346.3 ± 6.5 J/K/mol
180 K, 101.33 kPa, Crystal, Small (less than 1 g) adiabatic calorimetry
  molar entropy: 386.3 ± 7.2 J/K/mol
200 K, 101.33 kPa, Crystal, Small (less than 1 g) adiabatic calorimetry
  molar entropy: 425.4 ± 7.9 J/K/mol
220 K, 101.33 kPa, Crystal, Small (less than 1 g) adiabatic calorimetry
  molar entropy: 463.9 ± 8.6 J/K/mol
240 K, 101.33 kPa, Crystal, Small (less than 1 g) adiabatic calorimetry
  molar entropy: 501.9 ± 9.3 J/K/mol
260 K, 101.33 kPa, Crystal, Small (less than 1 g) adiabatic calorimetry
  molar entropy: 539.8 ± 10 J/K/mol
273.15 K, 101.33 kPa, Crystal, Small (less than 1 g) adiabatic calorimetry
  molar entropy: 564.6 ± 10 J/K/mol
280 K, 101.33 kPa, Crystal, Small (less than 1 g) adiabatic calorimetry
  molar entropy: 577.5 ± 11 J/K/mol
298.15 K, 101.33 kPa, Crystal, Small (less than 1 g) adiabatic calorimetry
  molar entropy: 611.7 ± 11 J/K/mol
298.15 K, 101.33 kPa, Crystal, X-ray diffraction
  mass density: 1438 ± 2 kg/m3
300 K, 101.33 kPa, Crystal, Small (less than 1 g) adiabatic calorimetry
  molar entropy: 615.3 ± 11 J/K/mol
320 K, 101.33 kPa, Crystal, Small (less than 1 g) adiabatic calorimetry
  molar entropy: 653.4 ± 12 J/K/mol
340 K, 101.33 kPa, Crystal, Small (less than 1 g) adiabatic calorimetry
  molar entropy: 691 ± 47 J/K/mol
360 K, 101.33 kPa, Crystal, Small (less than 1 g) adiabatic calorimetry
  molar entropy: 729 ± 51 J/K/mol
380 K, 101.33 kPa, Crystal, Small (less than 1 g) adiabatic calorimetry
  molar entropy: 768 ± 53 J/K/mol
400 K, 101.33 kPa, Crystal, Small (less than 1 g) adiabatic calorimetry
  molar entropy: 807 ± 56 J/K/mol
420 K, 101.33 kPa, Crystal, Small (less than 1 g) adiabatic calorimetry
  molar entropy: 848 ± 58 J/K/mol
437.5 K, 101.33 kPa, Crystal, Small (less than 1 g) adiabatic calorimetry
  molar entropy: 881 ± 58 J/K/mol
437.5 K, 101.33 kPa, Liquid, DSC
  molar entropy: 940 ± 83 J/K/mol
440 K, 101.33 kPa, Liquid, DSC
  molar entropy: 948 ± 83 J/K/mol
460 K, 101.33 kPa, Liquid, DSC
  molar entropy: 989 ± 83 J/K/mol
480 K, 101.33 kPa, Liquid, DSC
  molar entropy: 1030 ± 91 J/K/mol
Crystal, DTA
  Normal melting temperature: 164.4 ± 1.1 °C
[1]
  Molar enthalpy of transition or fusion: 26.4 ± 1.1 kJ/mol
